In ChEMBL document CHEMBL4765489, “A FabG inhibitor targeting an allosteric binding site inhibits several orthologs from Gram-negative ESKAPE pathogens” (Bioorg Med Chem, 2021):
Activity calls are given as the source filed them. The calls are words filed in the database; no cut-off is given here.

Columns and labels:
[1] = Inhibition of Escherichia coli N-terminal His6-tagged FabG expressed in Escherichia coli BL21 (DE3) using AcAcCoA as substrate assessed as NADPH consumption measured for 6 to 10 mins in presence of NADPH by spectrophotometric analysis
[2] = Inhibition of Klebsiella pneumoniae N-terminal His6-tagged FabG1 expressed in Escherichia coli BL21 (DE3) using AcAcCoA as substrate assessed as NADPH consumption measured for 6 to 10 mins in presence of NADPH by spectrophotometric analysis
[3] = Inhibition of Salmonella typhimurium N-terminal His6-tagged FabG expressed in Escherichia coli BL21 (DE3) using AcAcCoA as substrate assessed as NADPH consumption measured for 6 to 10 mins in presence of NADPH by spectrophotometric analysis; set-up: species or system Salmonella enterica subsp. enterica serovar Typhimurium
[4] = Inhibition of Salmonella typhimurium N-terminal His6-tagged FabG expressed in Escherichia coli BL21 (DE3) using 3-OHdNAC as substrate assessed as NADPH formation incubated for 2 hrs in presence of NADP by spectrophotometric analysis; set-up: species or system Salmonella enterica subsp. enterica serovar Typhimurium
[5] = Inhibition of Pseudomonas aeruginosa N-terminal His6-tagged FabG expressed in Escherichia coli BL21 (DE3) using AcAcCoA as substrate assessed as NADPH consumption measured for 6 to 10 mins in presence of NADPH by spectrophotometric analysis
[6] = Inhibition of Acinetobacter baumannii N-terminal His6-tagged FabG expressed in Escherichia coli BL21 (DE3) using AcAcCoA as substrate assessed as NADPH consumption measured for 6 to 10 mins in presence of NADPH by spectrophotometric analysis
[7] = system: Pseudomonas aeruginosa; test: Allosteric binding affinity to Pseudomonas aeruginosa N-terminal His6-tagged FabG expressed in Escherichia coli BL21 (DE3) assessed as protein destabilization by measuring decrease in melting temperature at 1 mM incubated for 15 mins by Sypro orange dye based differential scanning fluorimetry
[8] = Inhibition of Staphylococcus aureus N-terminal His6-tagged FabG expressed in Escherichia coli BL21 (DE3) using AcAcCoA as substrate assessed as NADPH consumption measured for 6 to 10 mins in presence of NADPH by spectrophotometric analysis
[9] = system: Acinetobacter baumannii; test: Allosteric binding affinity to Acinetobacter baumannii N-terminal His6-tagged FabG expressed in Escherichia coli BL21 (DE3) assessed as reduction in NADPH bound protein fraction at 100 to 500 uM by fluorescence based analysis; conditions: dose 100-500 µM
[10] = system: Escherichia coli; test: Allosteric binding affinity to Escherichia coli N-terminal His6-tagged FabG expressed in Escherichia coli BL21 (DE3) assessed as protein destabilization by measuring decrease in melting temperature at 1 mM incubated for 15 mins by Sypro orange dye based differential scanning fluorimetry
[11] = Inhibition of Acinetobacter baumannii N-terminal His6-tagged FabG expressed in Escherichia coli BL21 (DE3) using 3-OHdNAC as substrate assessed as NADPH formation incubated for 2 hrs in presence of NADP by fluorescence based analysis
[12] = system: Acinetobacter baumannii; test: Allosteric binding affinity to Acinetobacter baumannii N-terminal His6-tagged FabG expressed in Escherichia coli BL21 (DE3) assessed as melting temperature at 1 mM incubated for 15 mins by Sypro orange dye based differential scanning fluorimetry (reference value: 61.3 degreeC)
[13] = system: Staphylococcus aureus; test: Allosteric binding affinity to Staphylococcus aureus N-terminal His6-tagged FabG expressed in Escherichia coli BL21 (DE3) assessed as protein destabilization by measuring decrease in melting temperature at 1 mM incubated for 15 mins by Sypro orange dye based differential scanning fluorimetry
[14] = system: Klebsiella pneumoniae; test: Allosteric binding affinity to Klebsiella pneumoniae N-terminal His6-tagged FabG expressed in Escherichia coli BL21 (DE3) assessed as protein destabilization by measuring decrease in melting temperature at 1 mM incubated for 15 mins by Sypro orange dye based differential scanning fluorimetry
[15] = system: Salmonella enterica subsp. enterica serovar Typhimurium; test: Allosteric binding affinity to Salmonella typhimurium N-terminal His6-tagged FabG expressed in Escherichia coli BL21 (DE3) assessed as protein destabilization by measuring decrease in melting temperature at 1 mM incubated for 15 mins by Sypro orange dye based differential scanning fluorimetry

IC50 [1] [µM] | IC50 [2] [µM] | IC50 [3] [µM] | IC50 [4] [µM] | IC50 [5] [µM] | IC50 [6] [µM] | Activity [7] | IC50 [8] [µM] | Activity [9] | Activity [10] | IC50 [11] [µM] | Tm [12] [°C] | Activity [13] | Activity [14] | Activity [15] | Structure (SMILES)
19.9 | 137 | 150 | 22 | 30.9 | – | – | – | – | – | – | – | – | – | – | O=c1[nH]c(SCc2c(Cl)cccc2Cl)nc2ccnn12
– | 186 | 175 | 5.1 | 3.1 | 33.4 | – | – | – | – | – | – | – | – | – | O=C(Nc1ccc(Br)cc1C(=O)O)c1cccs1
7 | 13.8 | 12 | 35 | 19.7 | 64 | Active | 70.7 | Active | Active | 0.36 | 58.5 | Active | Active | Active | CCOC(=O)c1c(CN(C)C)n(-c2ccccc2)c2cc(Br)c(O)cc12
